In ChEMBL document CHEMBL1909046, “DrugMatrix in vitro pharmacology data”:

Experiments:
Cytochrome P450 2C9 = Cytochrome P450 2C9 (Homo sapiens, UniProt P11712); settings: bti-tn-5b1-4; further: in other assays of this panel Not Active means under 50% inhibition at 10 µM
[1] = biological target: T1, 5-hydroxytryptamine receptor 2C (Homo sapiens, UniProt P28335); assay: DRUGMATRIX: Serotonin (5-Hydroxytryptamine) 5-HT2C radioligand binding (ligand: [3H] Mesulergine); format: cell membranes, CHO-K1, Membrane; settings: Not Active = under 50% inhibition at 10 µM
T1 sequence (P28335 whole entry): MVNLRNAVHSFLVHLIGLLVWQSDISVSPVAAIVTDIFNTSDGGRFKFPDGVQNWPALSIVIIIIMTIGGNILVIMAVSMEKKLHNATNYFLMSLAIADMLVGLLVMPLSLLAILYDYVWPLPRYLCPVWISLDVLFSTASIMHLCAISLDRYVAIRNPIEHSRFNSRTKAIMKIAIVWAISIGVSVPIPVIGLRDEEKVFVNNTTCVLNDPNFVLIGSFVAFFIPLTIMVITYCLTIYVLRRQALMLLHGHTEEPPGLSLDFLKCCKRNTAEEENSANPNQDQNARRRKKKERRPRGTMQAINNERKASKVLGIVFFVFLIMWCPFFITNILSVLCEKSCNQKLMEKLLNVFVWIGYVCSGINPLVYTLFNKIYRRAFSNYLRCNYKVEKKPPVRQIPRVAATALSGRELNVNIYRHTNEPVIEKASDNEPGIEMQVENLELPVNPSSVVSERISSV

[2] = biological target: 5-hydroxytryptamine receptor 2B (Homo sapiens, UniProt P41595); format: cell membranes, CHO-K1, Membrane; settings: for Ki: read-out: Ki; on all read-outs here: in other assays of this panel Not Active means under 50% inhibition at 10 µM
Chain of 5-hydroxytryptamine receptor 2B (P41595 whole entry): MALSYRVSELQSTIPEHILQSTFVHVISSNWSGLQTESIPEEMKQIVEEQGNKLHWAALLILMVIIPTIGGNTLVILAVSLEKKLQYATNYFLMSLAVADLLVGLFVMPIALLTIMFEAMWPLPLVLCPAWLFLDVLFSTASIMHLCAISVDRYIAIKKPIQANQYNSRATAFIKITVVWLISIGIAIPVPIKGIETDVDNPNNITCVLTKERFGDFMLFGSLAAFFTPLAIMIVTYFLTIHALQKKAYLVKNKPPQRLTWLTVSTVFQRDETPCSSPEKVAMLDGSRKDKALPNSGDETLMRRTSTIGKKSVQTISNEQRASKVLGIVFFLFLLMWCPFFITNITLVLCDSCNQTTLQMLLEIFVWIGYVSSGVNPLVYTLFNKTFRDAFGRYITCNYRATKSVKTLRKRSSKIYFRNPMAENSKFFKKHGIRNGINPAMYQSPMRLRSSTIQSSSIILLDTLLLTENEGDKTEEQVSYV

[3] = DRUGMATRIX: GABAA, Flunitrazepam, Central radioligand binding (ligand: [3H] Flunitrazepam); format: cell membranes, Rattus norvegicus, Wistar, Brain, Membrane; settings: Not Active = under 50% inhibition at 10 µM
[4] = biological target: T2, Cysteinyl leukotriene receptor 1 (Homo sapiens, UniProt Q9Y271); format: cell membranes, Membrane; settings: cho-k1; further: in other assays of this panel Not Active means under 50% inhibition at 10 µM
T2 sequence (Q9Y271 whole entry): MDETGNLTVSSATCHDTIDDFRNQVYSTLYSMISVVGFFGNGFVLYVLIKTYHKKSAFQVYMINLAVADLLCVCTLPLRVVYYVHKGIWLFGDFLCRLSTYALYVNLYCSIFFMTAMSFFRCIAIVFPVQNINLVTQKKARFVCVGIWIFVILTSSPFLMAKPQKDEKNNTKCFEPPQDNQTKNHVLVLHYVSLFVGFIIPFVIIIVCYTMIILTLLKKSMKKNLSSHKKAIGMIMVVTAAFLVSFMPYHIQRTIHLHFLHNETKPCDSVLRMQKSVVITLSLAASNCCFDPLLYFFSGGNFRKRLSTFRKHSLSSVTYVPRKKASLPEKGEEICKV

[5] = biological target: Beta-3 adrenergic receptor (Homo sapiens, UniProt P13945); assay: DRUGMATRIX: Adrenergic beta3 radioligand binding (ligand: [125I] Cyanopindolol); format: cell membranes, HEK293, Membrane; settings: hek293; Not Active = under 50% inhibition at 10 µM
Chain of Beta-3 adrenergic receptor (P13945 whole entry): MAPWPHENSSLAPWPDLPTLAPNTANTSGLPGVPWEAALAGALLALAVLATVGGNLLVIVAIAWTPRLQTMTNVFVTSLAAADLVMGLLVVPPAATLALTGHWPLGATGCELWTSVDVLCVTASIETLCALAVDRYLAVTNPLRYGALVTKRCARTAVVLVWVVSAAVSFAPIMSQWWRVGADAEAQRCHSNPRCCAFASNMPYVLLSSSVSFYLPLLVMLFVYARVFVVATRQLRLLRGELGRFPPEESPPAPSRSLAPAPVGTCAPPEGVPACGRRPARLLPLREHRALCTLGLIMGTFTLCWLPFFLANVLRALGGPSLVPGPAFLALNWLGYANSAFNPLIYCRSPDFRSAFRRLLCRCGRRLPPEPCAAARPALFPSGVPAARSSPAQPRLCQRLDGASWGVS

Chain of Cytochrome P450 2C9 (P11712 whole entry): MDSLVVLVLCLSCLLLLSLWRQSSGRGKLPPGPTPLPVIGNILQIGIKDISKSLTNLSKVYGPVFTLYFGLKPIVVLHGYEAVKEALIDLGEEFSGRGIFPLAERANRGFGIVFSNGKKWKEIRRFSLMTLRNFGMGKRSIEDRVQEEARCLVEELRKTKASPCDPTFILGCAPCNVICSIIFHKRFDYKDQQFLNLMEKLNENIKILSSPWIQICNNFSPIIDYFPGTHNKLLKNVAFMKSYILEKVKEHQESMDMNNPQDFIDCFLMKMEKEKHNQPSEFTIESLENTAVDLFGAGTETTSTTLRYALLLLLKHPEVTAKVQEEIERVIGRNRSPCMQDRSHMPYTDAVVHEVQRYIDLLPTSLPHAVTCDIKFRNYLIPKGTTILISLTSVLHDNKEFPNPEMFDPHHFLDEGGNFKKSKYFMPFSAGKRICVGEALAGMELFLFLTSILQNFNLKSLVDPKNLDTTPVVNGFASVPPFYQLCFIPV

| Structure (SMILES) | IC50 (Cytochrome P450 2C9) | Ki (Cytochrome P450 2C9) | IC50 ([1]; cho-k1) | IC50 ([2]; cho-k1) | IC50 [3] | Ki [3] | IC50 [4] | IC50 [5] | IC50 ([3]; read-out: IC50) [nM] | Ki ([3]; read-out: Ki) [nM] | IC50 ([1]; read-out: IC50) [nM] | Ki ([1]; read-out: Ki) [nM] | IC50 ([2]; read-out: IC50) [nM] | Ki [2] [nM] |
| --- | --- | --- | --- | --- | --- | --- | --- | --- | --- | --- | --- | --- | --- | --- |
| N#Cc1ccc(C(c2ccc(C#N)cc2)n2cncn2)cc1 [LETROZOLE] | Not Active | Not Active | Not Active | Not Active | Not Active | Not Active | Not Active | Not Active |  |  |  |  |  |  |
| CCN1CCC[C@H]1CNC(=O)c1cc(S(N)(=O)=O)ccc1OC [LEVOSULPIRIDE] | Not Active | Not Active | Not Active | Not Active | Not Active | Not Active | Not Active | Not Active |  |  |  |  |  |  |
| O=C1Nc2ccc(Cl)cc2C(c2ccccc2Cl)=NC1O (centres undefined) [LORAZEPAM] | Not Active | Not Active | Not Active | Not Active |  |  | Not Active | Not Active | 6.35 | 5.18 |  |  |  |  |
| CO[C@@H]1[C@@H](OC)[C@H](C)[C@@](O)(CC(=O)O)O[C@H]1[C@H](C)[C@H]1O[C@@]2(CC[C@@](C)([C@H]3CC[C@@](C)([C@@H]4O[C@@H]([C@H]5O[C@](C)(O)[C@H](C)C[C@@H]5C)C[C@@H]4O[C@@H]4C[C@H](OC)[C@@H](OC)[C@H](C)O4)O3)O2)C[C@H](O)[C@H]1C [MADURAMICIN ACID] | Not Active | Not Active |  |  | Not Active | Not Active | Not Active | Not Active |  |  | 34 | 18 | 33 | 21 |
| COc1c2occc2cc2ccc(=O)oc12 [METHOXSALEN] | Not Active | Not Active | Not Active | Not Active | Not Active | Not Active | Not Active | Not Active |  |  |  |  |  |  |
| C[C@H]1C[C@@H]2[C@H]([C@@H](O)C[C@@]3(C)[C@H]2CC[C@]3(O)C(=O)CO)[C@@]2(C)C=CC(=O)C=C12 [METHYLPREDNISOLONE] | Not Active | Not Active | Not Active | Not Active | Not Active | Not Active | Not Active | Not Active |  |  |  |  |  |  |
| Cc1cccc(C)c1OCC(C)N (centres undefined) [MEXILETINE] | Not Active | Not Active | Not Active |  | Not Active | Not Active | Not Active | Not Active |  |  |  |  | 1140 | 724 |
| Nc1cc(N2CCCCC2)nc(N)[n+]1[O-] [MINOXIDIL] | Not Active | Not Active | Not Active | Not Active | Not Active | Not Active | Not Active | Not Active |  |  |  |  |  |  |
| CO[C@H]1/C=C/O[C@@]2(C)Oc3c(C)c(O)c4c(O)c(c(/C=N/N5CCN(C6CCCC6)CC5)c(O)c4c3C2=O)NC(=O)/C(C)=C\C=C\[C@H](C)[C@H](O)[C@@H](C)[C@@H](O)[C@@H](C)[C@H](OC(C)=O)[C@@H]1C [RIFAPENTINE] | Not Active | Not Active | Not Active | Not Active | Not Active | Not Active | Not Active | Not Active |  |  |  |  |  |  |
| CCCCOc1cc(CC2CNC(=O)N2)ccc1OC (centres undefined) [RO-201724] | Not Active | Not Active | Not Active | Not Active | Not Active | Not Active | Not Active | Not Active |  |  |  |  |  |  |
| CC[C@@H](C(=O)[C@@H](C)[C@@H](O)[C@H](C)[C@@H]1O[C@@H]([C@@H](CC)C(=O)O)CC[C@@H]1C)[C@H]1O[C@]2(C=C[C@@H](O)[C@]3(CC[C@@](C)([C@H]4CC[C@](O)(CC)[C@H](C)O4)O3)O2)[C@H](C)C[C@@H]1C [SALINOMYCIN] | Not Active | Not Active | Not Active | Not Active | Not Active | Not Active | Not Active | Not Active |  |  |  |  |  |  |
| O=C(Oc1ccccc1C(=O)O)c1ccccc1O [SALSALATE] | Not Active | Not Active | Not Active | Not Active | Not Active | Not Active | Not Active | Not Active |  |  |  |  |  |  |
